Reference: patent US20240245802A1, “PHARMACEUTICAL COMPOSITION FOR PREVENTING OR TREATING BRAIN TUMORS COMPRISING EXTRACELLULAR VESICLES LOADED WITH MITOCHONDRIA-TARGETING PHOTOSENSITIZER AS AN ACTIVE INGREDIENT” (ExoTheranostics, Inc., priority 2023, published 2024)

How the values were obtained:
U87MG cells [1] = assay: Intracellular localization by CLSM, MitoTracker Green; format: cell-based, human; conditions: free Ce6 or TPP-Ce6, 2 h
Description: U87MG and bEnd.3 cells (2×10^3 cells/well) were prepared in glass-bottom dishes (35×10 mm^2) and incubated for 24 h. Free Ce6, free TPP-Ce6, and bEV(TPP-Ce6) in serum-free medium were added to the cells at a final TPP-Ce6 (or Ce6) concentration of 0.15 μM. After 2 h of incubation at 37° C., the cells were washed three times with PBS and stained with 1 μg/mL DAPI (Thermo Fisher Scientific) for 10 min. Then, the cells were stained with 1 μM of LysoTracker Green DND-26 (Thermo Fisher Scientific) and 500 nM of MitoTracker Green FM (Thermo Fisher Scientific) for endo/lysosome and mitochondria staining, respectively. The glass-bottom dish was placed in live-cell chamber systems (5% CO2 at 37° C.) connected to a CLSM (Al Plus, Nikon, Japan). The obtained fluorescent images were analyzed for the quantification of colocalization ratios.

U87MG cells [2] = assay: Intracellular ROS generation (DCF-DA); format: cell-based, human
Description: (§1) The generation of ROS by Ce6 and TPP-Ce6 before and after 660 nm laser treatment was quantified using 2′,7′-dichlorofluorescein (DCF) in a cell-free system. After the sample solutions were treated with DCF for 1 h in the dark, ROS generation was determined by measuring the fluorescence signal from the samples. The intracellular ROS production in U87MG cells after various treatments was measured using DCF-DA. U87MG cells were inoculated into 12 well-plates at a density of 3×10^5 cells/well and cultured overnight. After the cells were incubated with 10 μM DCF-DA for 15 min, they were treated with Ce6, TPP-Ce6, and bEV(TPP-Ce6) at a TPP-Ce6 (or Ce6) concentration of 10 μM. After 4 h of incubation, the cells were trypsinized and divided into two groups. One of the groups was treated with a 660 nm laser for 1 min. The cells not subjected to laser treatment were kept as a control. After 30 min of incubation in the dark, relative ROS generation levels of each sample were quantified by flow cytometry (CytoFLEX).
To visualize ROS generation by TPP-Ce6 and bEV(TPP-Ce6) in U87MG cells under light irradiation, the cells were inoculated into 12-well plates (3×10^5 cells/well) and stained with 10 μM of DCF-DA. […] The green fluorescence signals indicating intracellular ROS were observed using a fluorescence microscope (Nikon Eclipse Ti-S, Nikon, Tokyo, Japan).

[3] = ROS generation in cell-free system (DCF); conditions: before and after 660-nm laser treatment
Description: as §1

U87MG cells [4] = assay: In vitro phototoxicity, MTT assay; format: cell-based, human; conditions: 10 μM
Description: To investigate the photodynamic effects of TPP-Ce6-loaded EVs, the viability of U87MG cells after various treatments in the presence or absence of laser irradiation was measured using a standard MTT assay. U87MG cells were treated with Ce6, TPP-Ce6, and bEV(TPP-Ce6) at an equivalent Ce6 (or TPP-Ce6) concentration (10 μM, 5.38×10^10 bEVs/mL). Cytotoxicity of blank bEVs against U87 cells was also assessed at various concentrations of bEVs. After 4 h of treatments, the cells were illuminated with a 660 nm laser for 1 min. The cells not subjected to light irradiation were adopted as a negative control. The cells were further incubated for 24 h, and their viabilities were measured.

[5] = tested on: luciferase-expressing U87MG brain tumors; assay: In vivo anti-brain tumor efficacy with laser irradiation; set-up: species or system mice
Description: (§2) All animal experiments were approved by the Institutional Animal Care and Use Committee at Gachon University (Approval number: LCDI-2017-0131). Orthotopic GBM-xenografted mice were prepared using U87MG cells stably expressing luciferase. Briefly, male athymic mice of 5 weeks of age (20-30 g) were placed on a stereotactic device (Harvard Apparatus, USA) under inhalation anesthesia using 1-1.5% isoflurane. U87MG-luc cells (1×10^5 cells) suspended in 2 μL of PBS were injected into the right striatum at a flow rate of 0.5 μL/min through a small hole in the skull at a position 2.0 mm lateral, 0.2 mm anterior, and 3.2 mm ventral to the bregma. The formation of brain tumors in the mice was identified by bioluminescence intensity (BLI).
The orthotopic GBM-bearing mice were randomly divided into five groups (n=4) and injected with one of the following regimens by i.v. injection dose of 0.8 μmol/kg Ce6 (or TPP-Ce6) via the tail vein: • (i) PBS, • (ii) PBS+L (L indicates light irradiation), • (iii) Ce6 (0.8 μmol/kg)+L, • (iv) TPP-Ce6 (0.8 μmol/kg)+L, and • (v) bEV(TPP-Ce6) (0.8 μmol/kg)+L.
At 4 h post-injection, the tumor sites of the mice were irradiated with a 660-nm laser (150 mW, 5 min) on the skull. […] Regions of bioluminescence signal were determined using Aura imaging software (Spectral Instruments Imaging). […]

U87MG cells [6] = assay: JC-1 staining assay (mitochondrial membrane potential); format: cell-based, human; conditions: 10 μM, 4 h, 660-nm laser 1 min
Description: Changes in the mitochondria membrane potentials of U87MG cells after various treatments were evaluated using a conventional JC-1 staining assay. U87MG cells were cultured in 12-well plates (3×10^5 cells/well) 24 h before treatment with Ce6, TPP-Ce6, and bEV(TPP-Ce6) (10 µM of Ce6 or TPP-Ce6). After 4 h of incubation, the cells were exposed to a 660-nm laser for 1 min. The untreated cells were adopted as a control. Then, the irradiated cells were treated with JC-1 solution in PBS (2.5 μg/mL) for 20 min in the dark, then rinsed twice with PBS. Fluorescent images of the cells were obtained by fluorescence microscopy (Nikon Eclipse Ti—S). Red fluorescence signals indicate the JC-1 aggregates in polarized mitochondria of healthy cells whereas green fluorescence signals reflect the JC-1 monomers in depolarized mitochondria, which indicates the loss in mitochondrial membrane potential, an indicator of mitochondrial damage.

[7] = tested on: orthotopic GBM-xenografted mice; assay: In vivo biodistribution and brain-tumor accumulation by IVIS; conditions: i.v. 0.8 μmol/kg
Description: as §2
To evaluate in vivo real-time biodistribution of Ce6, TPP-Ce6, and bEV(TPP-Ce6), orthotopic GBM-xenografted mice (n=4) were intravenously administered with 100 μL of each sample (0.8 μmol/kg for Ce6 or TPP-Ce6). Whole-body fluorescence images were acquired at the predetermined time points within 24 h after i.v. injection using an IVIS optical imaging system with a long wavelength emission filter (640-720 nm) (Ami HT imaging system, Spectral Instruments Imaging, Tucson, AZ, USA). Quantitative analysis of fluorescence intensity in the images was carried out using the region of interest (ROI) function of Aura Imaging 2.20 software (Spectral Instruments Imaging). […]

## chlorin e6 [Ce6]
U87MG cells [1]
  Mander's overlap coefficient with MitoTracker Green: 0.31±0.03
U87MG cells [2]; after light irradiation (660 nm, 1 min) vs before
  Relative intracellular ROS level, effect of light: significantly increased after 1 min of light exposure
U87MG cells [2]; without light
  DCF-DA fluorescence signals (images): weak fluorescence signals
[3]
  Relative ROS level in cell-free system: significantly increased the ROS generation
U87MG cells [4]; 660 nm laser 1 min, 24 h
  Cell viability under light irradiation: 72.5%
U87MG cells [4]; no light irradiation
  Viability / cytotoxicity without light: slightly decreased
[5]; day 9, upon light irradiation
  H&E staining of brain tumor tissue: low cell density and nuclear shrinkage
[5]; i.v. 0.8 μmol/kg, 660 nm laser 5 min at 4 h, 9 days
  Tumor growth (bioluminescence intensity): limited suppression of tumor growth
U87MG cells [6]
  JC-1 red fluorescence / red to green fluorescence ratio: drastically decreased
[7]; 24 h post-injection
  Fluorescence in the brain: weak fluorescence signals
[7]; whole body at 1 min
  Whole brain-to-whole body fluorescence intensity ratio, time course: similar
